Test results reported in paper PMC9081605, “A High-Throughput Toxicity Screen of 42 Per- and Polyfluoroalkyl Substances (PFAS) and Functional Assessment of Migration and Gene Expression in Human Placental Trophoblast Cells” (Frontiers in Toxicology, 2022).

Tested on: JEG-3 cells
Experiment: Gene expression, custom NanoString code set of 46 genes
Type: cell-based, human
Protocol: JEG-3 cells were seeded at a density of 80,000 cells per well in six well plates and allowed to adhere overnight (24 h). The following day, media was removed and replaced with exposure media, then returned to the incubator for 24 h. The test compounds included non-cytotoxic concentrations of PFOA (0, 1, and 100 µM) and GenX (0, 3, 300 µM). These test compounds were selected a priori due to their high public health relevance. Each 6 well plate contained the three concentrations for either PFOA or GenX, with each condition in technical duplicate. Plates containing these PFOA or GenX exposure conditions were replicated three times (N = 3). After 24 h, exposure media was aspirated and cells were washed in ice cold 1xPBS, which was then aspirated. Each well received 500 µl of TRIzol reagent (Thermo Fisher Scientific, MA, United States) and cells were harvested in the TRIzol using a cell scraper. Technical duplicate wells within a plate were combined to generate a single sample of ∼1,000 µl. RNA was isolated from the resulting cellular homogenate using RNeasy Mini Kits (Qiagen, Hilden, Germany). Isolated RNA quality was validated and concentration determined using a NanoDrop 2000 (Thermo Fisher Scientific, MA, United States). 100 ng of mRNA from each sample was then analyzed using a custom gene expression code set (NanoString, Seattle, WA, United States). The custom code set included 46 genes selected for their downstream involvement in placental development (e.g., WNT4), endocrine signaling (e.g., CYP19A1), fetal growth/nutrient sensing (e.g., IGF2), inflammation (e.g., IL6), oxidative stress (e.g., SOD1, GPX1), and xenobiotic transport/metabolism (e.g., ABCG2, MRP3).
Gene expression data were quantified using the nCounter Digital Analyzer (NanoString, Seattle, WA, United States) and raw and adjusted counts were generated with nSolver (v4.0) software (NanoString, Seattle, WA, United States). Data were adjusted utilizing the manufacturer’s positive and negative experimental control probes, as well as housekeeping genes (ACTA2, ACTB, B2M, LDHA, RNA18S5, and ROLYR2L). All samples passed nSolver’s initial QA/QC controls and replicates were very well correlated with R ^2 values greater than 0.99. Adjusted data were then imported into Partek v7.0 (St. Louis, MO, United States), log2 transformed and quantile normalized for further QA/QC and statistical analyses. Genes with mRNA counts below the detection threshold of 20 were removed due to suboptimal probe hybridization (N = 2 genes for GenX; GH2 and IGFBP5). Fold change values were analyzed by ANOVA with post hoc false discovery rate adjustment (FDR) of p < 0.1. Normalized gene expression values were visualized using pheatmap with Euclidean clustering of genes and concentration groups ([Kolde and Kolde, 2015]).

N.O=C(O)C(F)(OC(F)(F)C(F)(F)C(F)(F)F)C(F)(F)F (centres unmarked) [Ammonium perfluoro-2-methyl-3-oxahexanoate]
11BHSD2 gene expression, fold change over untreated control (3 µM, 24 h): -1.00 | 17BHSD1 gene expression, fold change over untreated control (3 µM, 24 h): -1.11 | AHR gene expression, fold change over untreated control (3 µM, 24 h): 1.04 | AHRR gene expression, fold change over untreated control (3 µM, 24 h): 1.18 | CAT gene expression, fold change over untreated control (3 µM, 24 h): 1.02 | CGB5 gene expression, fold change over untreated control (3 µM, 24 h): 1.08 | COX2 gene expression, fold change over untreated control (3 µM, 24 h): 1.27 | CTNNB1 gene expression, fold change over untreated control (3 µM, 24 h): 1.00 | CYP1A1 gene expression, fold change over untreated control (3 µM, 24 h): -1.22 | CYP2E1 gene expression, fold change over untreated control (3 µM, 24 h): -1.26 | CYP3A5 gene expression, fold change over untreated control (3 µM, 24 h): 1.19 | CYP3A7 gene expression, fold change over untreated control (3 µM, 24 h): 1.01 | CYP19A1 gene expression, fold change over untreated control (3 µM, 24 h): -1.03 | EGFR gene expression, fold change over untreated control (3 µM, 24 h): 1.00 | ENG gene expression, fold change over untreated control (3 µM, 24 h): 1.04 | ESRRA gene expression, fold change over untreated control (3 µM, 24 h): 1.00 | ESRRG gene expression, fold change over untreated control (3 µM, 24 h): -1.16 | GHR gene expression, fold change over untreated control (3 µM, 24 h): 1.15 | GPER1 gene expression, fold change over untreated control (3 µM, 24 h): -1.02 | HIF1A gene expression, fold change over untreated control (3 µM, 24 h): 1.00 | IGF2 gene expression, fold change over untreated control (3 µM, 24 h): 1.00 | IGFR1 gene expression, fold change over untreated control (3 µM, 24 h): -1.02 | IGFR2 gene expression, fold change over untreated control (3 µM, 24 h): 1.04 | IL6 gene expression, fold change over untreated control (3 µM, 24 h): -1.23 | MRP1 gene expression, fold change over untreated control (3 µM, 24 h): -1.05 | MRP2 gene expression, fold change over untreated control (3 µM, 24 h): 1.05 | MRP3 gene expression, fold change over untreated control (3 µM, 24 h): 1.07 | NFKB1 gene expression, fold change over untreated control (3 µM, 24 h): 1.03 | NFKB2 gene expression, fold change over untreated control (3 µM, 24 h): -1.07 | NR3C1 gene expression, fold change over untreated control (3 µM, 24 h): 1.00 | PGF gene expression, fold change over untreated control (3 µM, 24 h): 1.00 | PMM1 gene expression, fold change over untreated control (3 µM, 24 h): -1.05 | ROLYR2L gene expression, fold change over untreated control (3 µM, 24 h): 1.00 | SLC2A1 gene expression, fold change over untreated control (3 µM, 24 h): -1.04 | SOD1 gene expression, fold change over untreated control (3 µM, 24 h): 1.00 | TGFB1 gene expression, fold change over untreated control (3 µM, 24 h): -1.04 | VEGFA gene expression, fold change over untreated control (3 µM, 24 h): 1.04 | VEGFB gene expression, fold change over untreated control (3 µM, 24 h): 1.00 | WNT4 gene expression, fold change over untreated control (3 µM, 24 h): 1.08 | WNT6 gene expression, fold change over untreated control (3 µM, 24 h): -1.09 | WNT7B gene expression, fold change over untreated control (3 µM, 24 h): 1.07 | mTOR gene expression, fold change over untreated control (3 µM, 24 h): 1.00 | 11BHSD2 gene expression, fold change over untreated control (300 µM, 24 h): -1.01 | AHR gene expression, fold change over untreated control (300 µM, 24 h): -1.04 | AHRR gene expression, fold change over untreated control (300 µM, 24 h): 1.19 | CAT gene expression, fold change over untreated control (300 µM, 24 h): -1.05 | CGB5 gene expression, fold change over untreated control (300 µM, 24 h): 1.11 | COX2 gene expression, fold change over untreated control (300 µM, 24 h): 1.27 | CYP1A1 gene expression, fold change over untreated control (300 µM, 24 h): -1.16 | CYP2E1 gene expression, fold change over untreated control (300 µM, 24 h): 1.04 | CYP3A5 gene expression, fold change over untreated control (300 µM, 24 h): -1.83 | CYP3A7 gene expression, fold change over untreated control (300 µM, 24 h): -1.25 | CYP19A1 gene expression, fold change over untreated control (300 µM, 24 h): -1.29 | ENG gene expression, fold change over untreated control (300 µM, 24 h): -1.04 | ESRRA gene expression, fold change over untreated control (300 µM, 24 h): 1.19 | ESRRG gene expression, fold change over untreated control (300 µM, 24 h): 1.00 | GHR gene expression, fold change over untreated control (300 µM, 24 h): 1.11 | HIF1A gene expression, fold change over untreated control (300 µM, 24 h): 1.05 | IGFR1 gene expression, fold change over untreated control (300 µM, 24 h): -1.10 | IGFR2 gene expression, fold change over untreated control (300 µM, 24 h): -1.00 | IL6 gene expression, fold change over untreated control (300 µM, 24 h): -1.51 | MRP1 gene expression, fold change over untreated control (300 µM, 24 h): 1.14 | MRP2 gene expression, fold change over untreated control (300 µM, 24 h): 1.00 | MRP3 gene expression, fold change over untreated control (300 µM, 24 h): 1.44 | NFKB1 gene expression, fold change over untreated control (300 µM, 24 h): 1.03 | NFKB2 gene expression, fold change over untreated control (300 µM, 24 h): -1.04 | NR3C1 gene expression, fold change over untreated control (300 µM, 24 h): 1.00 | PGF gene expression, fold change over untreated control (300 µM, 24 h): -1.00 | PMM1 gene expression, fold change over untreated control (300 µM, 24 h): 1.05 | ROLYR2L gene expression, fold change over untreated control (300 µM, 24 h): 1.00 | SLC2A1 gene expression, fold change over untreated control (300 µM, 24 h): -1.13 | TGFB1 gene expression, fold change over untreated control (300 µM, 24 h): 1.00 | VEGFA gene expression, fold change over untreated control (300 µM, 24 h): 1.27 | VEGFB gene expression, fold change over untreated control (300 µM, 24 h): -1.01 | WNT4 gene expression, fold change over untreated control (300 µM, 24 h): 1.20 | WNT6 gene expression, fold change over untreated control (300 µM, 24 h): -1.09 | WNT7B gene expression, fold change over untreated control (300 µM, 24 h): -1.12 | mTOR gene expression, fold change over untreated control (300 µM, 24 h): 1.00 | number of genes with significantly altered expression (of 46) (300 µM, 24 h, FDR p < 0.1): 15 genes | lowest concentration inducing significant dysregulated expression of placental genes (after 24 h of exposure): 3 µM
